Assay results taken from US12680102B2, “miRNAS for reducing ventricle enlargement” (St. Jude Children's Research Hospital, Inc., priority 2019, dated 2026).

What was measured:
Drd1 = target: T1, Drd1 (Mus musculus, UniProt Q61616); assay: Ex vivo ciliary beating frequency (CBF) in brain slices, Drd1 agonist/antagonist bath-applied; assay type: cell-based; conditions: SKF81297 10 μM bath-applied, slices from 4- to 5-month-old WT mice, vs vehicle (DMSO)
T1 construct: coronal brain sections (300-μm) were collected in L-15 Leibovitz media; from tissue; host or cells: acute coronal mouse brain slices (300 µm); ciliated ependymal cells of the lateral ventricle wall; WT and Dgcr8+/- mice
T1 sequence (Q61616 whole entry): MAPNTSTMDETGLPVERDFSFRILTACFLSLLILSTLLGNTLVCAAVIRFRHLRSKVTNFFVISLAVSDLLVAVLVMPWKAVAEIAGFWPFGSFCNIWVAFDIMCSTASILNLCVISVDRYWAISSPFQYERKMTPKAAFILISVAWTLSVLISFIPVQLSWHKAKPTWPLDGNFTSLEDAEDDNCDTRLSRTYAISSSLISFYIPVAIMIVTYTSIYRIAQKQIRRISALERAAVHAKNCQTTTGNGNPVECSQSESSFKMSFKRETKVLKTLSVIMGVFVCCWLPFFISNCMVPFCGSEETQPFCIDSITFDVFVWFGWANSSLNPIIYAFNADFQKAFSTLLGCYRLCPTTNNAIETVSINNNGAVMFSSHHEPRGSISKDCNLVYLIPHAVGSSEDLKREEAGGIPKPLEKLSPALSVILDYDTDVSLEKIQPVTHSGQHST
Description: Ex Vivo Ciliary Beating Frequency Measurements. For ex vivo measurement of CBF, coronal brain sections (300-μm) were collected in L-15 Leibovitz media (Thermo Fisher Scientific) and placed in 37° C., 95%/5% O2/CO2 chamber. Image sequences of CBF were acquired by linescan analysis using an LD C-Apochromat 40× objective water-immersion lens (1.1 NA) in LSM780 confocal microscope (Zeiss AxioObserver). Slices were scanned through a line perpendicular to the axis of the cilia in the Xt mode along this line with an acquisition rate of 529 frames/second (512×1 frame size, 1.89-ms scan time, 5,000 cycles). Transmitted DIC and fluorescence emitted by GFP or Alexa Fluor 488 were collected with a 488- to 568-nm bandpass filter. Fluorescence excitation and transmitted illumination were provided by a 488-nm argon gas laser. The Drd1 agonist (SKF81297, 10 μM; Tocris, Minneapolis, MN) and antagonist (SCH23390, 10 μM; Tocris) were bath-applied once per slice. Five minutes after the agonist or antagonist was applied, the CBF was measured.

[1] = system: luciferase reporter encoding miRNA sponge; assay: Luciferase assay validating miRNA sponges in Neuro 2a cells; assay type: cell-based, mouse; conditions: pGIPZ vector encoding the miRNA vs control pGIPZ
From the text: FIGS. 13A-13B. Validation of the miRNA Sponges, Related to FIGS. 6A-6H. (FIG. 13A) Luciferase activity measured in Neuro 2a cells transfected with luciferase reporter vector alone, luciferase reporter vector encoding miR-382-3p sponges (two-tailed Student's t-test; t4=1.62, p=0.18) containing two (t4=23.00, *p<0.001), four (t4=24.35, *p<0.001), or six (t4=9.17, *p<0.001) miRNA-binding sites or scrambled sites (t4=2.36, p=0.08) in the presence of control pGIPZ vector or pGIPZ vector encoding miR-382-3p. Based on these experiments, the miR-382-3p sponge with six seed sites was chosen for in vivo experiments. (FIG. 13B) Luciferase activity in Neuro2a cells transfected with luciferase reporter vector alone, luciferase reporter vector encoding miR-674-3p sponges (t4=14.13, *p<0.001) containing two (t4=14.25, *p<0.001), four (t4=80.70, *p<0.001), or six miRNA-binding sites (t4=26.67, *p<0.001), or scrambled (t4=1.11, p=0.33) sites in the presence of control pGIPZ vector or pGIPZ vector encoding miR-674-3p. Data are shown as the mean±S.E.M.
Generation of miRNA Sponge Constructs. The miR-382-3p and miR-674-3p sponges were generated as described previously (Chun et al., 2017). […]

Row | Compound | ependymal CBF (Drd1) | inhibition of reporters containing the sponge sequence (luciferase activity) [1]
1 | Oc1cc2c(c(Cl)c1O)CCNCC2c1ccccc1 (centres unmarked) [SKF81297] | slowed ependymal CBF compared to vehicle treatment | –
2 | miR-674-3p: mature mouse miRNA CACAGCUCCCAUCUCAGAACAA (SEQ ID NO: 3); in FIG. 13 expressed from pGIPZ vector (listed as Mus musculus) | – | effectively inhibited reporters containing the sponge sequence in vitro
